From patent US10184115B2, “Mutated cellobiose dehydrogenase with increased substrate specificity” (DIRECTSENS GMBH, priority 2012, dated 2019)

Target: T1, Myriococcum thermophilum cellobiose dehydrogenase (CDH, SEQ ID NO: 1) variant N313S (Thermothelomyces myriococcoides, UniProt A9XK88, N313S)
T1 sequence (A9XK88 22-828 N313S): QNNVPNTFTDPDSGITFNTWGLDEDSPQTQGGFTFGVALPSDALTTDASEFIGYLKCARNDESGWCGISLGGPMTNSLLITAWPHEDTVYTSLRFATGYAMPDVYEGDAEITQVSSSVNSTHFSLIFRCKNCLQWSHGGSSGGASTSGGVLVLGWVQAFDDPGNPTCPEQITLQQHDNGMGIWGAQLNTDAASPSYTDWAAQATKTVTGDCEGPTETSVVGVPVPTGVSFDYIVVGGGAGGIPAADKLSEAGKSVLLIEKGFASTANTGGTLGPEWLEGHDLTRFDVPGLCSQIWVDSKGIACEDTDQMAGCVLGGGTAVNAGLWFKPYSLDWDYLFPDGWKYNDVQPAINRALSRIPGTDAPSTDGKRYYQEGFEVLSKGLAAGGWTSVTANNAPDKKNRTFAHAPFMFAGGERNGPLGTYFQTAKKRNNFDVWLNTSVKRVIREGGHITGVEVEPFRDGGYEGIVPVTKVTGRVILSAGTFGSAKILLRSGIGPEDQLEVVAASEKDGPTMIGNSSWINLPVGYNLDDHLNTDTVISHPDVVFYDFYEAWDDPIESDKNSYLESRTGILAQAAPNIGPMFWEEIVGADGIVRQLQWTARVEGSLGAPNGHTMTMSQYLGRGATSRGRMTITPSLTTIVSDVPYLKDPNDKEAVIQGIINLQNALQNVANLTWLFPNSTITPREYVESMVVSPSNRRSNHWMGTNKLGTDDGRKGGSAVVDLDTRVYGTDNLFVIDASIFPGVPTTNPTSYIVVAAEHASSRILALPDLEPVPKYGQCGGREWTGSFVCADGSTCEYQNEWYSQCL
Experiment: Steady-state kinetics, DCIP assay: M. thermophilum CDH N313S
Assay type: biochemical
Details: apparent, pH 4.5, 30° C.
Experimental: Enzyme activity was assayed at 30° C. using either the DCIP (Karapetyan et al., 2005 Journal of Biotechnology 121: 34-48) or cytochrome c (Canevascini et al., 1991, European Journal of Biochemistry 198: 43-52) as electron acceptor. […] Stock solutions of carbohydrates used for kinetic measurements were prepared in the respective buffer and allowed to stand overnight for mutarotation, while stock solutions of electron acceptors were prepared in water and immediately used. The reaction stoichiometry is 1 for the two-electron acceptor DCIP (1 mole of DCIP reduced per mole of carbohydrate oxidized), but 2 for the one-electron acceptor cytochrome c. Kinetic constants were calculated by fitting the observed data to the Henri-Michaelis-Menten equation or to the adapted model for substrate inhibition using nonlinear least-squares regression and the program SigmaPlot (Systat Software, San Jose, Calif., USA). […]
Recombinant wild-type CDH as well as variants were produced in 1 L baffled flasks. […] Increase in activity was monitored using the DCIP and the cytochrome c enzyme assays. […]
The sample was loaded on a 20 mL PHE Sepharose FF column (HR26/20) equilibrated with 50 mM Na-acetate buffer pH 5.5 containing 20% ammonium sulfate. […] Fractions were tested for CDH activity and pooled according to the highest Reinheitszahl (RZ, calculated from the absorbance ratio 420 nm/280 nm). […]

`OC[C@H]1OC(O)[C@H](O)[C@@H](O)[C@@H]1O` (some centres unmarked) [Glucose, glucose] showed a kcat of 6.8 s⁻¹ and a kcat/KM of 8.8 M⁻¹ s⁻¹.
